Patent US5688773A, “Method of selectively destroying neoplastic cells” (priority 1994, dated 1997)
Where “and” joins values, the source holds several entries; their conditions need not be identical. Equal values may be shown once. Read-outs that look alike come from different tables or passages of the source.

How the values were obtained:
[1] = system: CNEO-1 cells; assay: Cyclophosphamide dose-response assay; format: cell-based; details: Rattus norvegicus, C6 glioma; up to 1 mM CPA; read-out: cells that survived incubation
Description: Two days later CPA was added to final concentrations of 0-100 μM. Five days after plating, the monolayers were rinsed twice with Hank's buffered saline (GIBCO) to remove dead cells. Monolayers were dispersed using trypsin-EDTA (GIBCO), and cell numbers were determined using a Coulter counter (Coulter Electronics Inc.).

[2] = system: C6 glioma plus R450-2 cells; assay: Brain tumor model, fibroblast graft then intrathecal/intratumoral CPA; format: in vivo, athymic mice
Description: For intracerebral injections, mice were anesthetized with an intraperitoneal injection of Ketamin (100 mg per kg body weight) (Parke Davis, NJ) and Xylazine (20 mg per kg body weight) (Mobay Corp., KS). Surgical procedures were performed in a sterile fashion. After immobilizing the rodent in stereotactic apparatus (Kopf), a small incision was made in the skin overlying the skull. C6 glioma cells (10^3 cells in 2 μl) were stereotactically inoculated approximately 0.5 mm frontal and 0.5 mm right lateral to the bregma using a Hamilton syringe. The inoculation period was 5 minutes, with 2 minutes allowed for needle retraction. Three days later, the same burrhole was employed for the stereotactic grafting of 5×10^6 CRELacZ cells (cell line kindly provided by Dr. R. Mulligan, MIT) or 5×10^6 R450-2 cells in 25 μl of DMEM. Four, eight, and eleven days after this last injection, CPA (0.3 mg in 5 μl) was administered stereotactically, through the same skull opening, into the tumor and meningeal space of mice from both CRELacZ and R450-2 groups. Injections were carried out stereotactically over a period of ten minutes, with five minutes allowed for needle retraction. Animals were sacrificed, ten days after injection of the last dose of prodrug, by perfusing through the left ventricle approximately 3-5 mL of 100 mM sodium phosphate in 0.9% sodium chloride, pH 7.3, followed by 4% paraformaldehyde in 100 mM sodium phosphate, pH 7.3. Brains were carefully dissected from the skull and jaws of the animals, prior to placement overnight in 4% paraformaldehyde in 100 mM sodium phosphate, pH 7.3. For cryopreservation, brains were placed in 20% glycerol/10% dimethylsulfoxide in 100 mM sodium phosphate, pH 7.3, and then cut in 50 micron sections with a sledge microtome. Every sixth section was mounted onto gelatin-coated slides and stained with cresyl violet. To calculate brain tumor volumes, a computerized-image analyzer was used to scan tumor areas on each section. This analysis was performed in a blind fashion. Manual contouring was performed to distinguish tumor from normal brain cysts, or processing artifacts. Tumor volumes were obtained by multiplying the average tumor area from all sections in a brain by the distance (0.3 mm) between and including each section.

[3] = system: C6 cells co-cultured with C6-P450 cells; assay: Co-culture assay (cell-mediated effect); format: cell-based, rat; details: 0.5 mM CPA; for inhibition at 500 µM: Rattus norvegicus, C6, 96 h, 4 days, read-out: decrease in the proliferation of C6 cells
Description: Co-culture assay: Co-cultures of C6-P450 and C6 cells were incubated in triplicate at different ratios (where 0, 10, 50, 90, and 100% of the cells were C6-P450 cells) to achieve a total number of 2×10^6 cells/10 cm dish. After 24 hours, 0.5 mM CPA was added and four days later, cells were counted as previously described. To compare the killing achieved by cell contact with that obtained by exposure to conditioned medium, the supernatant from each co-culture was harvested, filtered through 0.45 μm membrane filters, mixed in a 1:1 ratio with 5 mL of fresh medium and added to overnight cultures of C6 cells (2×10^6 cells/10 cm dish in triplicate). Four days later, C6 cells were washed, harvested and counted. To determine the specificity of the cell-mediated killing effect from the co-culture assays, C6 cells were incubated overnight with C6 cells that expressed the neomycin phosphotransferase gene (C6-Neo), with irradiated C6 cells, with irradiated C6-Neo, and with irradiated C6-P450 cells. γ-irradiation was performed by exposing cells to a total of 6000 rads emitted by a ^51 chromium source.

[4] = system: cytochrome P450 2B1-negative cells (parental 9L and 9L-Z); assay: Drug sensitivity of cultured 9L cells; format: cell-based, rat; details: millimolar concentrations
Description: (§1) To test for drug sensitivity, 1×10^5 cells were plated in 30-mm tissue culture plates (Falcon 3046) in duplicate. Drugs were added 18-24 hours after seeding. Cells were allowed to grow for times ranging up to 5 days after drug treatment, and the final cell number was then determined. Cells were rinsed with phosphate buffered saline or Hank's buffered saline, dispersed using trypsin-EDTA (GIBCO/BRL, Inc.), and then counted with a hemocytometer. Results are expressed as a growth ratio, i.e., the number of cells in plates containing drug as a percentage of the corresponding drug-free controls (mean±range of duplicate determinations).

[5] = system: mixed culture of 9L and 9L-ZP cells; assay: Cytotoxicity toward mixed cultures; format: cell-based, rat; details: Rattus norvegicus, 120 h; equal numbers of 9L and 9L-ZP; 1 mM cyclophosphamide, 5 days; read-out: total cell population eradicated
Description: FIG. 28 is a bar graph depicting the cytotoxicity of oxazaphosphorines toward mixed cultures of 9L and 9L-ZP cells. Equal numbers of parental 9L cells were mixed with 9L-ZP cells (total initial cell number=1×10^5 /30 mm tissue culture dish). […] Cell numbers were determined 5 days after beginning drug treatment. Data (mean ±range of duplicates) are expressed as growth ratio (%) relative to drug-free controls.
as §1

[6] = system: control tumor MCF-7 Z3; assay: MCF-7 tumors in nude mouse model; format: in vivo, nude mice; details: 100 mg/kg ×2 intraperitoneal, day 0 and day 2
Description: (§2) MCF-7 cells or stable MCF-7 cell transfectants expressing cytochrome P450 2B1 or E. coli β-galactosidase (lacZ) were grown in cell culture. Cells in the exponential growth phase were harvested and then injected subcutaneously (1×10^7 cells in 0.2 mL) in the flanks of nude mice. A single 17β-estradiol pellet (1.7 mg hormone/60-day release pellet, Innovative Research, Toledo, Ohio) was implanted one day before tumor inoculation. At one month after tumor inoculation, the size of each tumor was measured using a vernier caliper.
(§3) Nude mice were then treated with cyclophosphamide given at 100 mg/kg body weight×2, by intraperitoneal injection given on day 0 and again on day 2. Tumor size measurements were then again determined using a vernier caliper, and data are expressed relative to tumor sizes as of day 0, the day of initial cyclophosphamide (CPA) injection.

[7] = system: cytochrome P450 2B1-expressing MCF-7 cells; assay: MCF-7 tumors in nude mouse model; format: in vivo, nude mice; details: 100 mg/kg ×2 intraperitoneal, day 0 and day 2
Description: as §2, §3

[8] = system: C6BAG and C6VIKWT cells; assay: Ganciclovir treatment of combined subcutaneous tumors; format: in vivo, nude mice
Description: Sequential injections of 10^5 C6BAG cells followed immediately by 10^6 C6BU1 cells, C6VIK cells, or C6VIKWT cells at the same injection site, were carried out as above using 20 animals for each combination. […] Tumor volume was assessed as the percentage increase over the volume at the beginning of treatment through 17 days.

[9] = system: C6VIK cells; details: subcutaneous, nude mice; cited from earlier work
[10] = system: parental C6 cells; details: subcutaneous, nude mice; cited from earlier work

| Compound | viability at 1000 µM [1] [%] | animals with a small residual meningeal mass ([2]; CPA 0.3 mg on days 4, 8, 11 after graft) | animals with no evidence of meningeal tumor ([2]; CPA 0.3 mg on days 4, 8, 11 after graft, sacrifice ten days after last dose) | brains with extensive tumor necrosis ([2]; histopathology of six brains) | Volumes of parenchymal brain tumors ([2]; individual animals, after cyclophosphamide administration) | brain tumor volume as fraction of average volume in lacZ-producer controls ([2]; three of six animals, listed as CPA) | Inhibition of proliferation of remaining C6 cells ([3]; 90% C6-P450 cells, four days) | inhibition at 500 µM ([3]; 10% of cells express the P450 gene) [%] | inhibition at 500 µM ([3]; 50% of cells contain the P450 gene) [%] | Effects on growth [4] | cytotoxicity at 1000 µM [5] [%] | Tumor cyclophosphamide sensitivity in vivo [6] | Tumor cell kill in vivo [7] | Tumor size compared to C6BAG and C6BU1 tumors ([8]; 14 day course, 25 mg/kg twice a day intraperitoneally) | Tumor regression ([8]; C6VIK-WT and C6BAG inoculated simultaneously, GCV treatment) | Tumor growth [9] | Tumor growth [10] |
| --- | --- | --- | --- | --- | --- | --- | --- | --- | --- | --- | --- | --- | --- | --- | --- | --- | --- |
| O=P1(N(CCCl)CCCl)NCCCO1 (centres unmarked) [cyclophosphamide] | ≥ 80 | 1/8 | 7/8 | 3/6 | 3.2 mm^3 and 14.2 mm^3 and 28.4 mm^3 and 87.4 mm^3 and 105.3 mm^3 and 171.4 mm^3 | approximately 1/20 and 1/5 and 1/2 | complete inhibition | 75 | ~85 | no adverse effects | ~80 | only a moderate cyclophosphamide sensitivity | preferentially killed |  |  |  |  |
| Nc1nc(O)c2ncn(COC(CO)CO)c2n1 [ganciclovir] |  |  |  |  |  |  |  |  |  |  |  |  |  | even greater decrease in the size | regression of tumors in most nude mice | inhibited tumor growth | had no effect on tumor growth |
